Literature values in patent US20150031774A1, “RASAGILINE ORALLY DISINTEGRATING COMPOSITIONS” (priority 2004, published 2015).

Molecular target: 9-form of the enzyme monoamine oxidase (Homo sapiens, UniProt P27338)
Conditions: prior-art patents cited in background

9-form of the enzyme monoamine oxidase, sequence (P27338 whole entry): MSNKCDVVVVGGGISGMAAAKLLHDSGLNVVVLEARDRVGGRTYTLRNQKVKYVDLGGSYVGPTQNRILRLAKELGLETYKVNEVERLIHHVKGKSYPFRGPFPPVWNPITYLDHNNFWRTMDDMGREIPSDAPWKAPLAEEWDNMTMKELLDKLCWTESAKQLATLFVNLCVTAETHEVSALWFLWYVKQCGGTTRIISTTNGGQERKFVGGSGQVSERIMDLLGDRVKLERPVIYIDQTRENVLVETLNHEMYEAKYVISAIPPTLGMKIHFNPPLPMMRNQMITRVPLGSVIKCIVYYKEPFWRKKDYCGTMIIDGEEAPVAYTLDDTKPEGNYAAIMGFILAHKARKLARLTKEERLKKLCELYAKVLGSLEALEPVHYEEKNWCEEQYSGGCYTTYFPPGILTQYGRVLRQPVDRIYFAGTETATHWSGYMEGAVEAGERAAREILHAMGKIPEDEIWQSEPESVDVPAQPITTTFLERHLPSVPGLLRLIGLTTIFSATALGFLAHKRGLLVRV

C#CCN[C@@H]1CCc2ccccc21 [Rasagiline, R(+)-propargyl-1-aminoindan]
selectivity of monoamine oxidase inhibition: selective inhibitor
